From ChEMBL document CHEMBL1128879, “Design, synthesis, and structure-activity relationships of 2-substituted-2-amino-1,3-propanediols: Discovery of a novel immunosuppressant, FTY720” (Bioorg Med Chem Lett, 1995)
Blank lines part the entries; values can stand above or below the molecule they belong to.

Tests used:
Mus musculus = species on record: Mus musculus; experiment: In vitro ability to inhibit mouse allogenic mixed leukocyte response (MLR); type: functional
Rattus norvegicus [1] = experiment: (§1) Compound was evaluated in vivo in rat skin allograft by intravenous (iv) administration; toxic; type: organism-based
Rattus norvegicus [2] = experiment: as §1; type: functional
Rattus norvegicus [3] = experiment: Compound was evaluated in vivo for the immunosuppressive activity following intraperitoneal (ip) administration at a dose of 0.1 mg/Kg; type: functional
Rattus norvegicus [4] = experiment: Compound was evaluated in vivo for the immunosuppressive activity following intraperitoneal (ip) administration at a dose of 0.3 mg/Kg; type: functional
Rattus norvegicus [5] = experiment: Compound was evaluated in vivo for the immunosuppressive activity following intraperitoneal (ip) administration at a dose of 1 mg/Kg; type: functional
Rattus norvegicus [6] = experiment: Compound was evaluated in vivo for the immunosuppressive activity following intraperitoneal (ip) administration at a dose of 3 mg/Kg; type: functional
Rattus norvegicus [7] = experiment: Compound was evaluated in vivo in rat skin allograft by intravenous (iv) administration; not toxic; type: functional
Rattus norvegicus [8] = experiment: Compound was evaluated in vivo for the immunosuppressive activity following intraperitoneal (ip) administration at a dose of 3 mg/kg; type: functional
Rattus norvegicus [9] = experiment: Compound was evaluated in vivo for the immunosuppressive activity following intravenous (iv) administration at a dose of 0.1 mg/kg; type: functional
Rattus norvegicus [10] = experiment: Compound was evaluated in vivo for the immunosuppressive activity following intravenous (iv) administration at a dose of 10 mg/Kg; type: functional
Rattus norvegicus [11] = experiment: Compound was evaluated in vivo for the immunosuppressive activity following intravenous (iv) administration at a dose of 3 mg/Kg; type: functional
Rattus norvegicus [12] = experiment: Compound was evaluated in vivo for the immunosuppressive activity following peroral (po) administration at a dose of 0.1 mg/Kg; type: functional
Rattus norvegicus [13] = experiment: Compound was evaluated in vivo for the immunosuppressive activity following peroral (po) administration at a dose of 3 mg/Kg; type: functional
Rattus norvegicus [14] = experiment: Compound was evaluated in vivo for the immunosuppressive activity following peroral (po) administration at a dose of 30 mg/Kg; type: functional

SMILES: CCCCCCCCCCCCCCCC(N)(CO)CO
Dose (Rattus norvegicus [1]): 3 mg/kg

SMILES: CCCCCCCCCCCCCCC(N)(CO)CO
Dose (Rattus norvegicus [2]): 10 mg/kg | MST (Rattus norvegicus [3]): 12 days | MST (Rattus norvegicus [4]): 28 days | MST (Rattus norvegicus [5]): 40 days | MST (Rattus norvegicus [6]): 45 days

SMILES: CCCCCCCCCc1ccc(CC(N)(CO)CO)cc1
IC50 (Mus musculus): 70 nM

SMILES: NC(CO)(CO)CCCCCCCCCCc1ccccc1
IC50 (Mus musculus): 54 nM

SMILES: CCCCCCCCc1ccc(CCC(N)(CO)CO)cc1 [FINGOLIMOD]
Dose (Rattus norvegicus [7]): 10 mg/kg | MST (Rattus norvegicus [3]): 32 days | MST (Rattus norvegicus [4]): 36 days | MST (Rattus norvegicus [5]): 45 days | MST (Rattus norvegicus [8]): 60 days | MST (Rattus norvegicus [9]): 24.8 days | MST (Rattus norvegicus [10]): 53.5 days | MST (Rattus norvegicus [11]): 46.3 days | MST (Rattus norvegicus [12]): 19.3 days | MST (Rattus norvegicus [13]): 41 days | MST (Rattus norvegicus [14]): 57.8 days

More lines, now with the values ahead:

IC50 (Mus musculus): 19 nM
SMILES: CCCCCCc1ccc(CCCCC(N)(CO)CO)cc1

IC50 (Mus musculus): 13 nM
SMILES: CCCCCCCCCCc1ccc(C(N)(CO)CO)cc1

IC50 (Mus musculus): 350 nM
SMILES: CCCCCCCc1ccc(CCCC(N)(CO)CO)cc1

IC50 (Mus musculus): 8.5 nM
SMILES: CCCCCCCCCc1ccc(CCC(N)(CO)CO)cc1

IC50 (Mus musculus): 32 nM
SMILES: CCc1ccc(CCCCCCCCC(N)(CO)CO)cc1

IC50 (Mus musculus): 100 nM
SMILES: CCCCc1ccc(CCCCCCC(N)(CO)CO)cc1
